Test results published in ChEMBL document CHEMBL1140283, “Novel, potent small-molecule inhibitors of the molecular chaperone Hsp90 discovered through structure-based design” (J Med Chem, 2005).

Experiments:
[1] = tested on: HCT-116; assay: Inhibitory concentration against cell proliferation of human HCT116 cells; assay type: functional
[2] = molecular target: ATP-dependent molecular chaperone HSC82 (Saccharomyces cerevisiae S288c, UniProt P15108); assay: Inhibitory concentration against ATPase activity of Hsp90 of Saccharomyces cerevisiae was determined by ATPase activity assay
[3] = molecular target: Heat shock protein HSP 90-alpha (Homo sapiens, UniProt P07900); assay: Inhibitory concentration against activity of Hsp90 was determined by fluorescence polarization (FP) assay
[4] = tested on: HCT-116; assay: Inhibitory concentration against cell proliferation of human HCT116 cell; assay type: functional
[5] = Homo sapiens, HCT-116, read-out: GI50

Sequence of ATP-dependent molecular chaperone HSC82 (P15108 whole entry): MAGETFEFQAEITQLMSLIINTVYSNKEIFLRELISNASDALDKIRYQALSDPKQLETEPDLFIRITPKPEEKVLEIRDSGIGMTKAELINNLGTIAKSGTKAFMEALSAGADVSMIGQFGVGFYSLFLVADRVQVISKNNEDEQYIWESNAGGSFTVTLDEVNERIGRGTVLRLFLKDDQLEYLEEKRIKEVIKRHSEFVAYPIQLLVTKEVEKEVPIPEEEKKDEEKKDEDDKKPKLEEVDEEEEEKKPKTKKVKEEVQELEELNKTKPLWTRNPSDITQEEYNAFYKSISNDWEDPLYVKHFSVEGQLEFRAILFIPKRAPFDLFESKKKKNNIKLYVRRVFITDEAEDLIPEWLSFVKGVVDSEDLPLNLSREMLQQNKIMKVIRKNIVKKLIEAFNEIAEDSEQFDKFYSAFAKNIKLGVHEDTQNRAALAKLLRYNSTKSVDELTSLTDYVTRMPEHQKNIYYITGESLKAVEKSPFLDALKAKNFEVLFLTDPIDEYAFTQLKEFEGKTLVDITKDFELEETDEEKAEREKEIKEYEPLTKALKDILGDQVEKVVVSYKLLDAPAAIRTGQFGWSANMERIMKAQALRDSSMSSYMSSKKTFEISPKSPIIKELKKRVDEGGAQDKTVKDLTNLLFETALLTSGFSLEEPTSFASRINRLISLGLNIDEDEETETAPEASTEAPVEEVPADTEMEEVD

SMILES	GI50 [1, 5]	IC50 [2]	IC50 [3]	GI50 [1]	GI50 [4]
CNC(=O)c1[nH]nc(-c2cc(Cl)c(O)cc2O)c1-c1ccc(OC)cc1	680 nM	110 nM	39 nM		
Cc1n[nH]c(-c2ccc(O)cc2O)c1-c1ccc2c(c1)OCCO2	34800 nM	23000 nM	4730 nM		
COc1ccc(-c2c(-c3cc(Cl)c(O)cc3O)n[nH]c2C(=O)O)cc1		2300 nM	510 nM	> 80000 nM	
C[C@@H]1C[C@H]2O[C@@H]2/C=C\C=C\C(=O)Cc2c(Cl)c(O)cc(O)c2C(=O)O1 [RADICICOL]		200 nM			130 nM
COc1ccc(-c2c(-c3cc(Cl)c(O)cc3O)n[nH]c2C(=O)NC(C)C)cc1	1900 nM	1500 nM	120 nM		
COc1ccc(-c2c(C)n[nH]c2-c2cc(Br)c(O)cc2O)cc1	6100 nM	1900 nM	62 nM		
C=CCNC1=C2C[C@@H](C)C[C@H](OC)[C@H](O)[C@@H](C)/C=C(\C)[C@H](OC(N)=O)[C@@H](OC)/C=C\C=C(/C)C(=O)NC(=CC1=O)C2=O [TANESPIMYCIN]		13400 nM			160 nM
CCNC(=O)c1[nH]nc(-c2cc(Cl)c(O)cc2O)c1-c1ccc(OC)cc1		140 nM			
COc1ccc(-c2c(-c3ccc(O)cc3O)n[nH]c2C)cc1	33300 nM	36900 nM			
COc1ccc(-c2c(C)n[nH]c2-c2cc(Cl)c(O)cc2O)cc1	6700 nM	1700 nM	150 nM		
CCNC(=O)c1[nH]nc(-c2cc(Br)c(O)cc2O)c1-c1ccc(OC)cc1	938 nM	390 nM			
Cc1[nH]nc(-c2cc(Cl)c(O)cc2O)c1-c1ccc2c(c1)OCCO2	14900 nM	650 nM			
COc1ccc(-c2c(-c3cc(Cl)c(O)cc3O)n[nH]c2C(N)=O)cc1	1100 nM	420 nM	53 nM		
CCc1cc(-c2n[nH]c(C)c2-c2ccc3c(c2)OCCO3)c(O)cc1O	5800 nM	5700 nM			
